Source: ChEMBL document CHEMBL3044817, “Antifeedant and mosquitocidal compounds from Delphinium x cultorum cv. Magic fountains flowers” (J Agric Food Chem, 2000)
Activity calls are given as the source filed them. The calls are words filed in the database; no cut-off is given here.

System: Helicoverpa zea
Test: Antifeedant activity against Helicoverpa zea (corn earworm) at 250 mg/ml at 28 degC day/24 degC night measured after 6 days
Assay type: functional, organism-based

SMILES | Activity
O=C(O)c1ccc(O)cc1 | inactive
Oc1ccc(C(O)c2ccc(O)cc2)cc1 | inactive
